The values that follow come from patent US11098062B2, “Monocyclic and bicyclic ring system substituted carbanucleoside analogues for use as PRMT5 inhibitors” (Janssen Pharmaceutica NV, priority 2016, dated 2021).

The target of this test is T1, PRMT5-MEP50 enzyme (Homo sapiens, UniProt O14744).
T1 construct: One virus expresses full length human PRMT5 with Flag-tag at N-terminus; Flag (N); purchased Charles River (Argenta); host or cells: insect cells (Sf9), baculovirus co-infection
T1 sequence (O14744 whole entry): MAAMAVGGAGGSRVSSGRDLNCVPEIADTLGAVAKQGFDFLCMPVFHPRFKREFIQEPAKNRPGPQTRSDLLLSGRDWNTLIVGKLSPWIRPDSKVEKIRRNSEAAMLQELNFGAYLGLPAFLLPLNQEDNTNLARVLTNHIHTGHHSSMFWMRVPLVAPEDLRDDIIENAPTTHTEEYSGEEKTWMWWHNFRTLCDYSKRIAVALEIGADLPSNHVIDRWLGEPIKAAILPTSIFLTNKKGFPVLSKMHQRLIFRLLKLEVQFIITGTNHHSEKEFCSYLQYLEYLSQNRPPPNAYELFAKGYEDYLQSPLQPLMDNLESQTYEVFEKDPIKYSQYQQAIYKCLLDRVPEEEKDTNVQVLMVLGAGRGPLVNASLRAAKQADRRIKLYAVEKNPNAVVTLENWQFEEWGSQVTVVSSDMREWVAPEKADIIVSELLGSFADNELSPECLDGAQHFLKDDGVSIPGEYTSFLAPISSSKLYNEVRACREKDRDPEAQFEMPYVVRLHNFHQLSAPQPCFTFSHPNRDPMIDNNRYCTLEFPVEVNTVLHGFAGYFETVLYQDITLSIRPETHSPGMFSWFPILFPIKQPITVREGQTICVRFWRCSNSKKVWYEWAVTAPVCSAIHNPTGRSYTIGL
T1 sequence (Q9BQA1 whole entry partner): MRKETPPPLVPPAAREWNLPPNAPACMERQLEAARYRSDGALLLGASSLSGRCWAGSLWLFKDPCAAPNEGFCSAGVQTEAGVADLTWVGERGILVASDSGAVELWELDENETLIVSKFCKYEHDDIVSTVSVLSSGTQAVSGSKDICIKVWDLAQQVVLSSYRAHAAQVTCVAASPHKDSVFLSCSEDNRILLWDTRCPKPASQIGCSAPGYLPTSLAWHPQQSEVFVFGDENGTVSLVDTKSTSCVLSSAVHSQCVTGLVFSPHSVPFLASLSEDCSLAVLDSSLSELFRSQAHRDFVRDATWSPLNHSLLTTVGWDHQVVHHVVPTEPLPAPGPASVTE
The test can be described thus: In vitro assay 1b: PRMT5-MEP50 high throughput mass spectrometer assay (SAH formation), 1.25 nM enzyme. In kind it is biochemical. The following applies: 1.25 nM enzyme, 1 μM SAM, 0.3 μM H2A, 30° C., 120 min; averaged values; read-out: pIC50 Assay 1b (converted). From the text:
Experimental Procedures In Vitro Assay (Assay 1a and 1b)
PRMT5-MEP50 enzyme was purchased from Charles River (Argenta). The enzyme complex was produced in insect cells (Sf9) infected simultaneously with two baculoviruses. One virus expresses full length human PRMT5 with Flag-tag at N-terminus, the second virus expresses full length MEP50 with His6-TEV cleavage at N-terminus. The protein was affinity purified using anti-Flag (M2) beads eluted with 3×FLAG peptide, followed by His-Select eluted with 0.5M imidazole. Eluted protein was then dialysed against tris-buffered saline (TBS) (pH 8.0) containing 20% glycerol and 3 mM dithiothreitol (DTT).
Full-length untagged human recombinant histone H2A (residues 1-130, Genbank Accession #NM_021052, MW=14.1 kDa) expressed in E. coli was purchased from Reaction Biology Corporation, Cat #HMT-11-146. Reagents used for making reaction buffer or stopping reaction were purchased including Tris base (Sigma Cat #T-1503), NaCl (Sigma Cat #RGF-3270), MgCl2 (Sigma Cat #M0250), DTT (Invitrogen Cat #15508-013) and Formic Acid (Riedel deHaen, Cat #33015)
PRMT5 catalyzes the sequential methylations of the terminal nitrogen atoms on the guanidine groups of arginine residues within proteins using co-substrate S-adenosyl-L-methionine (AdoMet, SAM), forming mono-methyl (MMA), syrmmetric-dimethyl arginine (sDMA) and S-adenosyl-L-homocysteine (AdoHcy, SAH). The enzyme activity was determined by following the product SAH formation using high throughput mass spectrometry (Agilent Rapidfire 300 System coupled to a Sciex 4000 series QTrap® triple-quad MS/MS). The reaction buffer was 20 mM Tris-HCl, pH 8.5, 50 mM NaCl, 5 mM MgCl2 and 1 mM DTT. The reaction activity was stopped using 1% formic acid (final concentration).
The IC50 Studies were performed using eleven point dosing series made for each compound by serially diluted 1:2 in dimethyl sulfoxide (DMSO), with point 12 being a DMSO control. Compounds were first spotted to plates, and followed by addition of 2 μM SAM and 0.6 μM H2A (histone H2A) solution mixture. The same volume of enzyme solution was added to initiate the enzymatic reactions. The final concentrations of the reaction are at 1 μM SAM, 0.3 μM H2A and 10 nM enzyme (assay 1a) or or 1.25 nM enzyme (assay 1b). The reaction was incubated at 30° C. for 60 minutes (min) when 10 nM enzyme was used and for 120 min when 1.25 nM enzyme was used. Subsequently, the reaction was quenched by addition of formic acid to a final concentration of 1%. The inhibitions of SAH formation in the presence of compounds were calculated as a percentage of the control relative to the uninhibited reaction as a function of inhibitor concentration. The data were fit as follows: Y=Bottom+(Top−Bottom)/(1+10^((log IC50−X)*h))
where IC50 is the inhibitor concentration (same unit as X) at 50% inhibition and h is the Hill slope. Y is percent of inhibition, X is log of compound concentration. Bottom and Top are the plateaus in same units as Y.
In the case of `Nc1ncnc2c1ccn2[C@@H]1C[C@H](CCc2ccn3cc(C(F)(F)F)nc3c2)[C@@H](O)[C@H]1O` [Compound 23], the IC50 was 39.8 nM.
Regarding `CC(=O)Nc1cn2ccc(CC[C@H]3C[C@@H](n4ccc5c(N)ncnc54)[C@H](O)[C@@H]3O)cc2n1` [Compound 31], the IC50 was 63.1 nM.
`Cc1cn2ccc(OC[C@H]3C[C@@H](n4ccc5c(N)ncnc54)[C@H](O)[C@@H]3O)cc2n1` [Compound 33]: the IC50 was 5.01 nM.
Turning to `Nc1cc(/C=C/[C@H]2C[C@@H](n3ccc4c(N)ncnc43)[C@H](O)[C@@H]2O)ccn1` [Compound 36], the IC50 is 2000 nM.
The result for `Nc1cccc(/C=C/[C@H]2C[C@@H](n3ccc4c(N)ncnc43)[C@H](O)[C@@H]2O)n1` [Compound 37] reads 794 nM; that for `Cn1cncc1CC[C@H]1C[C@@H](n2ccc3c(N)ncnc32)[C@H](O)[C@@H]1O` [Compound 38], 794 nM; that for `CC(c1cncn1C)[C@H]1C[C@@H](n2ccc3c(N)ncnc32)[C@H](O)[C@@H]1O` (stereo partly drawn) [Compound 39], 2000 nM.
Under `Nc1cccc(CCC[C@H]2C[C@@H](n3ccc4c(N)ncnc43)[C@H](O)[C@@H]2O)n1` [Compound 40] stands 79.4 nM; under `Nc1cc2cccc(CCC[C@H]3C[C@@H](n4ccc5c(N)ncnc54)[C@H](O)[C@@H]3O)c2cn1` [Compound 41], 398 nM.
Under `Nc1ncnc2c1ccn2[C@@H]1C[C@H](CCCc2cccnc2)[C@@H](O)[C@H]1O` [Compound 42] stands 316 nM; under `Nc1ncnc2c1ccn2[C@@H]1C[C@H](CCCc2cnc3ccccc3c2)[C@@H](O)[C@H]1O` [Compound 43], 251 nM; under `Nc1ncnc2c1ccn2[C@@H]1C[C@H](CCCc2cnc3c(N)cccc3c2)[C@@H](O)[C@H]1O` [Compound 44], 1580 nM.
With `Nc1cc(CCC[C@H]2C[C@@H](n3ccc4c(N)ncnc43)[C@H](O)[C@@H]2O)ccn1` [Compound 45], the IC50 is 501 nM.
The result for `Nc1ncnc2c1ccn2[C@@H]1C[C@H](CCCc2ccccn2)[C@@H](O)[C@H]1O` [Compound 46] reads over 2510 nM.
`Nc1ncnc2c1ccn2[C@@H]1C[C@H](CCCc2ccc3cccnc3c2)[C@@H](O)[C@H]1O` [Compound 47]: the IC50 is 1580 nM.
Under `Nc1ncnc2c1ccn2[C@@H]1C[C@H](CCCc2ccn3ccnc3c2)[C@@H](O)[C@H]1O` [Compound 48] stands 31.6 nM; under `Nc1ncnc2c1ccn2[C@@H]1C[C@H](CCCc2ccncc2)[C@@H](O)[C@H]1O` [Compound 49], over 2510 nM.
Under `Nc1ccc2cccc(CCC[C@H]3C[C@@H](n4ccc5c(N)ncnc54)[C@H](O)[C@@H]3O)c2n1` [Compound 50] stands 31.6 nM.
Under `Nc1ncnc2c1ccn2[C@@H]1C[C@H](CCCc2cccc3ccncc23)[C@@H](O)[C@H]1O` [Compound 51] stands 316 nM; under `Nc1ncnc2c1ccn2[C@@H]1C[C@H](CCCc2cccc3cccnc23)[C@@H](O)[C@H]1O` [Compound 52], over 2510 nM; under `Nc1ccc(CCC[C@H]2C[C@@H](n3ccc4c(N)ncnc43)[C@H](O)[C@@H]2O)cn1` [Compound 53], 2 nM.
In the case of `Nc1cc2cccc(CCCC[C@H]3C[C@@H](n4ccc5c(N)ncnc54)[C@H](O)[C@@H]3O)c2cn1` [Compound 54], the IC50 was 100 nM.
The result for `Nc1cccc(CCCC[C@H]2C[C@@H](n3ccc4c(N)ncnc43)[C@H](O)[C@@H]2O)n1` [Compound 55] reads 0.398 nM; that for `Nc1ccc(CCCC[C@H]2C[C@@H](n3ccc4c(N)ncnc43)[C@H](O)[C@@H]2O)cn1` [Compound 56], 7.94 nM; that for `Nc1cc(CCCC[C@H]2C[C@@H](n3ccc4c(N)ncnc43)[C@H](O)[C@@H]2O)ccn1` [Compound 57], 79.4 nM.
Under `Nc1ncnc2c1ccn2[C@@H]1C[C@H](CCCCc2cccc3cccnc23)[C@@H](O)[C@H]1O` [Compound 58] stands over 2510 nM; under `Nc1ncnc2c1ccn2[C@@H]1C[C@H](CCCCc2cnc3c(N)cccc3c2)[C@@H](O)[C@H]1O` [Compound 59], 2000 nM; under `Nc1ncnc2c1ccn2[C@@H]1C[C@H](CCCCc2ccc3cccnc3c2)[C@@H](O)[C@H]1O` [Compound 60], 251 nM.
Under `Nc1ncnc2c1ccn2[C@@H]1C[C@H](CCCCc2ccn3ccnc3c2)[C@@H](O)[C@H]1O` [Compound 61] stands 7.94 nM; under `Nc1ncnc2c1ccn2[C@@H]1C[C@H](CCCCc2cnc3ccccc3c2)[C@@H](O)[C@H]1O` [Compound 62], 794 nM.
Consider `Nc1ncnc2c1ccn2[C@@H]1C[C@H](CCCCc2ccncc2)[C@@H](O)[C@H]1O` [Compound 63], for which the IC50 is 2000 nM.
Regarding `Nc1ncnc2c1ccn2[C@@H]1C[C@H](CCCCc2ccccn2)[C@@H](O)[C@H]1O` [Compound 64], the IC50 was 100 nM.
Consider `Nc1ccc2cccc(CCCC[C@H]3C[C@@H](n4ccc5c(N)ncnc54)[C@H](O)[C@@H]3O)c2n1` [Compound 65], for which the IC50 is 10 nM.
The result for `Nc1ncnc2c1ccn2[C@@H]1C[C@H](CCCCc2cccc3ccncc23)[C@@H](O)[C@H]1O` [Compound 66] reads 39.8 nM; that for `Nc1ncnc2c1ccn2[C@@H]1C[C@H](CCc2cccnc2)[C@@H](O)[C@H]1O` [Compound 67], 501 nM.
The result for `Nc1ncnc2c1ccn2[C@@H]1C[C@H](CCc2cn[nH]c2)[C@@H](O)[C@H]1O` [Compound 68] reads 1260 nM.
The result for `Nc1ncc(CC[C@H]2C[C@@H](n3ccc4c(N)ncnc43)[C@H](O)[C@@H]2O)cn1` [Compound 69] reads 2000 nM; that for `Nc1ncnc2c1ccn2[C@@H]1C[C@H](CCc2cnc(Nc3ccc(Cl)cc3)nc2)[C@@H](O)[C@H]1O` [Compound 70], 501 nM.
For the compound `Nc1ncnc2c1ccn2[C@@H]1C[C@H](CCC2=CC3=NC(=O)CN3C=C2)[C@@H](O)[C@H]1O` [Compound 71], the IC50 was 100 nM.
The result for `Nc1ncnc2c1ccn2[C@@H]1C[C@H](CCc2cnc3c(c2)OCCN3)[C@@H](O)[C@H]1O` [Compound 72] reads 12.6 nM.
As to `Nc1ncnc2c1ccn2[C@@H]1C[C@H](CCc2cnc3c(c2)CCN3)[C@@H](O)[C@H]1O` [Compound 73], the IC50 is 25.1 nM.
The result for `Nc1ncnc2c1ccn2[C@@H]1C[C@H](Cn2ccc3ccncc32)[C@@H](O)[C@H]1O` [Compound 75] reads 251 nM.
